Results on 20 compounds are retold here after US11180470B2, “Herbicidal pyrimidine compounds” (BASF SE, priority 2016, dated 2021).

The subject of test [1] is ECHCG. In words: greenhouse experiment, post-emergence treatment. Format: in vivo, Echinocloa crus-galli. The note with it: post-emergence method, scale from 0 to 100. How it is done: The seeds of the test plants were sown separately for each species. […] For this purpose, the test plants were either sown directly and grown in the same containers, or they were first grown separately as seedlings and transplanted into the test containers a few days prior to treatment. Depending on the species, the plants were kept at 10-25° C. or 20-35° C., respectively. The test period extended over 2 to 4 weeks. During this time, the plants were tended, and their response to the individual treatments was evaluated. Evaluation was carried out using a scale from 0 to 100. 100 means no emergence of the plants, or complete destruction of at least the aerial moieties, and 0 means no damage, or normal course of growth. A good herbicidal activity is given at values of at least 70 and a very good herbicidal activity is given at values of at least 85. The plants used in the greenhouse experiments were of the following species: [table]

Another test has as its system ALOMY. In words: greenhouse experiment, post-emergence treatment. Format: in vivo, Alopecurus myosuroides. The note with it: post-emergence method, scale from 0 to 100. The text has this:
(§1) The culture containers used were plastic flowerpots containing loamy sand with approximately 3.0% of humus as the substrate. The seeds of the test plants were sown separately for each species.
(§2) For the post-emergence treatment, the test plants were first grown to a height of 3 to 15 cm, depending on the plant habit, and only then treated with the active ingredients which had been suspended or emulsified in water. For this purpose, the test plants were either sown directly and grown in the same containers, or they were first grown separately as seedlings and transplanted into the test containers a few days prior to treatment.
(§3) Depending on the species, the plants were kept at 10-25° C. or 20-35° C., respectively.
(§4) The test period extended over 2 to 4 weeks. During this time, the plants were tended, and their response to the individual treatments was evaluated.
(§5) Evaluation was carried out using a scale from 0 to 100. 100 means no emergence of the plants, or complete destruction of at least the aerial moieties, and 0 means no damage, or normal course of growth. A good herbicidal activity is given at values of at least 70 and a very good herbicidal activity is given at values of at least 85.
(§6) The plants used in the greenhouse experiments were of the following species: […]

Test [2] concerns ECHCG. In words: greenhouse experiment, pre-emergence treatment. The note with it: pre-emergence method, scale from 0 to 100. Format: in vivo, Echinocloa crus-galli. The source says: (§7) The seeds of the test plants were sown separately for each species. For the pre-emergence treatment, the active ingredients, which had been suspended or emulsified in water, were applied directly after sowing by means of finely distributing nozzles. The containers were irrigated gently to promote germination and growth and subsequently covered with transparent plastic hoods until the plants had rooted. This cover caused uniform germination of the test plants, unless this had been impaired by the active ingredients. Depending on the species, the plants were kept at 10-25° C. or 20-35° C., respectively. The test period extended over 2 to 4 weeks. During this time, the plants were tended, and their response to the individual treatments was evaluated. Evaluation was carried out using a scale from 0 to 100. 100 means no emergence of the plants, or complete destruction of at least the aerial moieties, and 0 means no damage, or normal course of growth. A good herbicidal activity is given at values of at least 70 and a very good herbicidal activity is given at values of at least 85. The plants used in the greenhouse experiments were of the following species: [table]

A further test relates to APESV. In words: greenhouse experiment, pre-emergence treatment. It counts as in vivo, Apera spica-venti. The following applies: pre-emergence method, scale from 0 to 100.
Description: as §7

In the next test the test system is AVEFA. In words: greenhouse experiment, post-emergence treatment. It counts as in vivo, Avena fatua. The note with it: post-emergence method, scale from 0 to 100.
Description: as §1, §2, §3, §4, §5, §6

For the compound `O=C(O)c1nc(C2CC2)ncc1-c1nc(C(F)(F)F)ccc1F` [Example 62], the “herbicidal activity against ECHCG” value in the test on ECHCG [1] (application rate 2000 g/ha) and in the test with ECHCG [2] (application rate 2000 g/ha) was “very good (a very good herbicidal activity is given at values of at least 85)” throughout. Moreover, the “herbicidal activity against ALOMY” value with ALOMY (application rate 2000 g/ha) is listed as “very good (a very good herbicidal activity is given at values of at least 85)”. For the same compound, the “herbicidal activity against APESV” value in the test with APESV (application rate 2000 g/ha) is “very good (a very good herbicidal activity is given at values of at least 85)”. The “herbicidal activity against AVEFA” value in the test with AVEFA (application rate 2000 g/ha) was “very good (a very good herbicidal activity is given at values of at least 85)”.

As for `Cc1cscc1-c1cnc(C2CC2)nc1C(=O)O` [Example 6], the “herbicidal activity against ECHCG” value in the test on ECHCG [1] (application rate 2000 g/ha) and with ECHCG [2] (application rate 2000 g/ha) was “very good (a very good herbicidal activity is given at values of at least 85)” each time. The “herbicidal activity against APESV” value in the test with APESV (application rate 2000 g/ha) was “very good (a very good herbicidal activity is given at values of at least 85)”.

Take `CCc1ncc(-c2ncccc2F)c(C(=O)O)n1` [Example 50]: the “herbicidal activity against ECHCG” value in the test on ECHCG [1] (application rate 1000 g/ha) is “very good (a very good herbicidal activity is given at values of at least 85)”.

Take `Cc1sccc1-c1cnc(C2CC2)nc1C(=O)O` [Example 8]: the “herbicidal activity against ECHCG” value in the test with ECHCG [2] (application rate 2000 g/ha) is on record as “very good (a very good herbicidal activity is given at values of at least 85)”. Besides, the “herbicidal activity against APESV” value in the test with APESV (application rate 2000 g/ha) is recorded as “very good (a very good herbicidal activity is given at values of at least 85)”.

With `COC(=O)c1nc(C2CC2)ncc1-c1cscc1C` [Example 7], the “herbicidal activity against ECHCG” value in the test on ECHCG [1] (application rate 2000 g/ha) and in the test with ECHCG [2] (application rate 2000 g/ha) was “very good (a very good herbicidal activity is given at values of at least 85)” throughout.

`COC(=O)c1nc(C2CC2)ncc1-c1cccnc1F` [Example 25]: the “herbicidal activity against ECHCG” value in the test with ECHCG [1] (application rate 1000 g/ha) is on record as “very good (a very good herbicidal activity is given at values of at least 85)”.

As to `O=C(O)c1nc(C2CC2)ncc1-c1cccnc1Br` [Example 20], the “herbicidal activity against ECHCG” value with ECHCG [1] (application rate 2000 g/ha) and in the test on ECHCG [2] (application rate 2000 g/ha) was “very good (a very good herbicidal activity is given at values of at least 85)” in each case. The “herbicidal activity against APESV” value in the test with APESV (application rate 2000 g/ha) is recorded as “very good (a very good herbicidal activity is given at values of at least 85)”. For the same compound, the “herbicidal activity against AVEFA” value in the test on AVEFA (application rate 2000 g/ha) is recorded as “very good (a very good herbicidal activity is given at values of at least 85)”.

In the case of `O=C(O)c1nc(C2CC2)ncc1-c1ncc(F)cc1F` [Example 36], the “herbicidal activity against ALOMY” value with ALOMY (application rate 2000 g/ha) was “very good (a very good herbicidal activity is given at values of at least 85)”. For the same compound, the “herbicidal activity against ECHCG” value in the test with ECHCG [2] (application rate 2000 g/ha) is on record as “very good (a very good herbicidal activity is given at values of at least 85)”. For the same compound, in the test with APESV (application rate 2000 g/ha), the “herbicidal activity against APESV” value was “very good (a very good herbicidal activity is given at values of at least 85)”. The “herbicidal activity against AVEFA” value in the test with AVEFA (application rate 2000 g/ha) was “very good (a very good herbicidal activity is given at values of at least 85)”.

In the case of `O=C(O)c1nc(C2CC2)ncc1-c1ncccc1Br` [Example 29], the “herbicidal activity against ECHCG” value in the test on ECHCG [1] (application rate 2000 g/ha) is given as “very good (a very good herbicidal activity is given at values of at least 85)”; in the test on ECHCG [2] (application rate 2000 g/ha), “good (A good herbicidal activity is given at values of at least 70)”. Also, in the test on ALOMY (application rate 2000 g/ha), the “herbicidal activity against ALOMY” value is recorded as “very good (a very good herbicidal activity is given at values of at least 85)”. Moreover, the “herbicidal activity against APESV” value in the test on APESV (application rate 2000 g/ha) is “good (A good herbicidal activity is given at values of at least 70)”. For the same compound, the “herbicidal activity against AVEFA” value in the test on AVEFA (application rate 2000 g/ha) is listed as “very good (a very good herbicidal activity is given at values of at least 85)”.

For `COc1ncc(-c2ncccc2Br)c(C(=O)O)n1` [Example 51], the “herbicidal activity against ECHCG” value in the test with ECHCG [1] (application rate 2000 g/ha) is “good (A good herbicidal activity is given at values of at least 70)”. In the test on ALOMY (application rate 2000 g/ha), the “herbicidal activity against ALOMY” value was “good (A good herbicidal activity is given at values of at least 70)”. Also, the “herbicidal activity against AVEFA” value in the test on AVEFA (application rate 2000 g/ha) is recorded as “good (A good herbicidal activity is given at values of at least 70)”.

As for `COC(=O)c1nc(C2CC2)ncc1-c1ccoc1Cl` [Example 15], in the test with ECHCG [2] (application rate 2000 g/ha), the “herbicidal activity against ECHCG” value was “good (A good herbicidal activity is given at values of at least 70)”.

On to `COC(=O)c1nc(C2CC2)ncc1-c1sccc1C` [Example 4], for which the “herbicidal activity against ECHCG” value in the test on ECHCG [1] (application rate 2000 g/ha) and in the test with ECHCG [2] (application rate 2000 g/ha) was “very good (a very good herbicidal activity is given at values of at least 85)” throughout.

As to `O=C(O)c1nc(C2CC2)ncc1-c1ccsc1Cl` [Example 12], the “herbicidal activity against ALOMY” value with ALOMY (application rate 1000 g/ha) is “very good (a very good herbicidal activity is given at values of at least 85)”. Moreover, the “herbicidal activity against ECHCG” value with ECHCG [2] (application rate 1000 g/ha) is recorded as “very good (a very good herbicidal activity is given at values of at least 85)”. In the test with APESV (application rate 1000 g/ha), the “herbicidal activity against APESV” value was “very good (a very good herbicidal activity is given at values of at least 85)”. The “herbicidal activity against AVEFA” value in the test on AVEFA (application rate 1000 g/ha) was “very good (a very good herbicidal activity is given at values of at least 85)”.

With `CCc1ncc(-c2ncccc2Br)c(C(=O)OC)n1` [Example 43], in the test with ECHCG [2] (application rate 2000 g/ha), the “herbicidal activity against ECHCG” value is listed as “very good (a very good herbicidal activity is given at values of at least 85)”.

Turning to `COC(=O)c1nc(C2CC2)ncc1-c1ccsc1Cl` [Example 11], in the test with ALOMY (application rate 1000 g/ha), the “herbicidal activity against ALOMY” value is “very good (a very good herbicidal activity is given at values of at least 85)”. In addition, the “herbicidal activity against ECHCG” value in the test on ECHCG [2] (application rate 1000 g/ha) is reported as “very good (a very good herbicidal activity is given at values of at least 85)”. Moreover, in the test with AVEFA (application rate 1000 g/ha), the “herbicidal activity against AVEFA” value is reported as “good (A good herbicidal activity is given at values of at least 70)”.

In the case of `O=C(O)c1nc(C2CC2)ncc1-c1ccoc1Br` [Example 14], the “herbicidal activity against ECHCG” value in the test on ECHCG [2] (application rate 1000 g/ha) is recorded as “very good (a very good herbicidal activity is given at values of at least 85)”. Further, in the test on APESV (application rate 1000 g/ha), the “herbicidal activity against APESV” value is listed as “good (A good herbicidal activity is given at values of at least 70)”.

Regarding `COC(=O)c1nc(C2CC2)ncc1-c1ccsc1C` [Example 5], in the test on ECHCG [2] (application rate 2000 g/ha), the “herbicidal activity against ECHCG” value is “very good (a very good herbicidal activity is given at values of at least 85)”.

Take `O=C(O)c1nc(C2CC2)ncc1-c1ncccc1F` [Example 23]: the “herbicidal activity against ECHCG” value in the test with ECHCG [1] (application rate 2000 g/ha) and in the test on ECHCG [2] (application rate 2000 g/ha) was “very good (a very good herbicidal activity is given at values of at least 85)” in each case. The “herbicidal activity against ALOMY” value in the test on ALOMY (application rate 2000 g/ha) was “very good (a very good herbicidal activity is given at values of at least 85)”. Besides, the “herbicidal activity against APESV” value in the test on APESV (application rate 2000 g/ha) is recorded as “very good (a very good herbicidal activity is given at values of at least 85)”.

Consider `O=C(O)c1nc(C2CC2)ncc1-c1ccoc1Cl` [Example 13], for which the “herbicidal activity against ECHCG” value with ECHCG [1] (application rate 2000 g/ha) and in the test with ECHCG [2] (application rate 2000 g/ha) was “very good (a very good herbicidal activity is given at values of at least 85)” each time. In addition, the “herbicidal activity against ALOMY” value in the test with ALOMY (application rate 2000 g/ha) was “very good (a very good herbicidal activity is given at values of at least 85)”. Also, in the test on APESV (application rate 2000 g/ha), the “herbicidal activity against APESV” value is recorded as “very good (a very good herbicidal activity is given at values of at least 85)”.

On to `O=C(O)c1nc(C2CC2)ncc1-c1ccncc1F` [Example 37], for which the “herbicidal activity against ECHCG” value in the test on ECHCG [1] (application rate 2000 g/ha) is on record as “good (A good herbicidal activity is given at values of at least 70)”; with ECHCG [2] (application rate 2000 g/ha), “very good (a very good herbicidal activity is given at values of at least 85)”. Moreover, the “herbicidal activity against ALOMY” value with ALOMY (application rate 2000 g/ha) is on record as “good (A good herbicidal activity is given at values of at least 70)”. In addition, the “herbicidal activity against APESV” value in the test with APESV (application rate 2000 g/ha) is “good (A good herbicidal activity is given at values of at least 70)”.
